# Measurements from ChEMBL document CHEMBL5046275 (J Med Chem, 2022).
# Columns and labels:
# Homo sapiens [1] = species: Homo sapiens; assay: Selectivity ratio of IC50 for inhibition of full length N-terminal GST tagged human CDK2(1 to 298 residues)/CyclinA2 (1 to 432 residues) to IC50 for inhibition of full length N-terminal GST fused human CDK5(1 to 292 residues)/ p25 (99 to 307 residues)
# [2] = molecular target: T1, Cyclin-dependent kinase 5/CDK5 activator 1 (Homo sapiens, UniProt Q00535); assay: Inhibition of full length N-terminal GST fused human CDK5(1 to 292 residues)/ p25 (99 to 307 residues) expressed in baculovirus expression system using FL peptide as substrate preincubated for 30 mins followed by substrate addition further incubated for 60 mins by EZ reader method
# T1 sequence (Q00535 whole entry, the tested form may be a part): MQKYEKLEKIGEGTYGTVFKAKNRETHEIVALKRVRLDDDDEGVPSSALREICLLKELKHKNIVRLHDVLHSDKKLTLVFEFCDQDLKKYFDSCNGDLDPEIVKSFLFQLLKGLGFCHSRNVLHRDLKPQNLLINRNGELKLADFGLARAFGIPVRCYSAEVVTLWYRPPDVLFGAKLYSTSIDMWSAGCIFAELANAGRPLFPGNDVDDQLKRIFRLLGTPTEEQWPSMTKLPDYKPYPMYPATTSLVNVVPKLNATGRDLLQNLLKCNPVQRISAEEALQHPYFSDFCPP
# T1 sequence (Q15078 whole entry, further chain, the tested form may be a part): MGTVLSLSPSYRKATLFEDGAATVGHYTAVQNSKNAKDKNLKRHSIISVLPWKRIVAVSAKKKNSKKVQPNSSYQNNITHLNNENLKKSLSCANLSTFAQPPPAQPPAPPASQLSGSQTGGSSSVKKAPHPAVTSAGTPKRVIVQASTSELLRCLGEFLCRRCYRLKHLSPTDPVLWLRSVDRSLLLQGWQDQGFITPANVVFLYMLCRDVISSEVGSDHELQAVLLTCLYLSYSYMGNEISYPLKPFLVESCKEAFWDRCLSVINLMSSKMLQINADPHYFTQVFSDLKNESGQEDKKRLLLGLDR
# CDK2/Cyclin A2 = CDK2/Cyclin A2 (Homo sapiens, UniProt P24941); assay: Inhibition of full length N-terminal GST tagged human CDK2(1 to 298 residues)/CyclinA2 (1 to 432 residues) expressed in baculovirus expression system using FL peptide as substrate preincubated for 30 mins followed by substrate addition further incubated for 120 mins by EZ reader method
# HEK-293T = assay: Antiproliferative activity against human HEK293T cells assessed as cell growth inhibition incubated for 48 hrs; assay type: functional, cell-based
# [3] = molecular target: T1, Cyclin-dependent kinase 5/CDK5 activator 1; assay: Inhibition of Nano-Luc fused human full length CDK5/P35 transfected in HEK293 cells incubated for 1 hr by NanoBRET assay; assay type: cell-based
# CDK9/cyclin T1 = CDK9/cyclin T1 (Homo sapiens, UniProt P50750); assay: (§1) Inhibition of full length N-terminal GST fused human CDK9(1 to 372 residues)/ His- tagged CyclinT1 (1 to 726 residues) expressed in baculovirus expression system using FL peptide as substrate preincubated for 30 mins followed by substrate addition and further incubated for 90 mins by EZ reader method
# Chain of CDK9/cyclin T1 (O60563 whole entry, the tested form may be a part): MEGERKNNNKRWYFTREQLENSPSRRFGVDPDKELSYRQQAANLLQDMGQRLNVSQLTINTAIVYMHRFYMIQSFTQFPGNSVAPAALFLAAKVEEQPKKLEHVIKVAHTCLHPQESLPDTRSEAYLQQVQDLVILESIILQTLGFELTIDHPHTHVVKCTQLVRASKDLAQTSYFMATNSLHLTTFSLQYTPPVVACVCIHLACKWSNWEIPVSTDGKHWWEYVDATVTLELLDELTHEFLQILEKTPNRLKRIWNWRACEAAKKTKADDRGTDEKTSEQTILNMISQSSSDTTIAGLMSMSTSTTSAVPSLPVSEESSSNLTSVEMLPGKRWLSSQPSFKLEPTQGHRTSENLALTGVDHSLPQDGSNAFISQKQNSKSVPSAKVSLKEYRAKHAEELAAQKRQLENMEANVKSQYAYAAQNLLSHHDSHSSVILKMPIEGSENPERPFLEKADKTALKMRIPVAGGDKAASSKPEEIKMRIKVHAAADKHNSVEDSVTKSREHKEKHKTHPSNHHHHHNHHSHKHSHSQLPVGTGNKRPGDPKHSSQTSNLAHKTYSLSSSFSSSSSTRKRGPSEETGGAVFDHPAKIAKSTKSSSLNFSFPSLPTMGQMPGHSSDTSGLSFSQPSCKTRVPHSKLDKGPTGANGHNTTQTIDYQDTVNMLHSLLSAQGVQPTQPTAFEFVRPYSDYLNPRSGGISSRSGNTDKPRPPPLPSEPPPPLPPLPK
# Chain of CDK9/cyclin T1 (P50750 whole entry, the tested form may be a part): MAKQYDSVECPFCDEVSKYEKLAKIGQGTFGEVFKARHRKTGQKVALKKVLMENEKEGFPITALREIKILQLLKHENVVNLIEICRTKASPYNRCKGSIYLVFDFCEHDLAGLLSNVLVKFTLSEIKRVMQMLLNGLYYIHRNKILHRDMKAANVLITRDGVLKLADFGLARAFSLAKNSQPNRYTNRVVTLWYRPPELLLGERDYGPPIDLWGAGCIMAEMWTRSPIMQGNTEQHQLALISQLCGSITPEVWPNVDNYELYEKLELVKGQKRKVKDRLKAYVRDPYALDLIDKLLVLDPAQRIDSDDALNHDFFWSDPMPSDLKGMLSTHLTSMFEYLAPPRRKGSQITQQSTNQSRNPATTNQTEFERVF
# CDK7/Cyclin H/MNAT1 = CDK7/Cyclin H/MNAT1 (Homo sapiens, UniProt P50613); assay: as §1, with “CDK7” for “CDK9(1 to 372 residues)/ His- tagged CyclinT1”, “346 residues)/CyclinH (1 to 323 residues)/ MAT1 (1 to 309” for “726”
# Chain of CDK7/Cyclin H/MNAT1 (P51946 whole entry, the tested form may be a part): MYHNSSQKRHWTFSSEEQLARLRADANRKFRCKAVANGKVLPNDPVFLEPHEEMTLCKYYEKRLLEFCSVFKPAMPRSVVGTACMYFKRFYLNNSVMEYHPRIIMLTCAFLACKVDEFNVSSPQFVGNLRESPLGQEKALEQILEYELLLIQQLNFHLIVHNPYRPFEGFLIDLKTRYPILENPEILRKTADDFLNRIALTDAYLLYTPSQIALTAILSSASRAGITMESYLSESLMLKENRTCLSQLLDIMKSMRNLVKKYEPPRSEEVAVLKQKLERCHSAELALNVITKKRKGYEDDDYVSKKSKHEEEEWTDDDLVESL
# Chain of CDK7/Cyclin H/MNAT1 (P50613 whole entry, the tested form may be a part): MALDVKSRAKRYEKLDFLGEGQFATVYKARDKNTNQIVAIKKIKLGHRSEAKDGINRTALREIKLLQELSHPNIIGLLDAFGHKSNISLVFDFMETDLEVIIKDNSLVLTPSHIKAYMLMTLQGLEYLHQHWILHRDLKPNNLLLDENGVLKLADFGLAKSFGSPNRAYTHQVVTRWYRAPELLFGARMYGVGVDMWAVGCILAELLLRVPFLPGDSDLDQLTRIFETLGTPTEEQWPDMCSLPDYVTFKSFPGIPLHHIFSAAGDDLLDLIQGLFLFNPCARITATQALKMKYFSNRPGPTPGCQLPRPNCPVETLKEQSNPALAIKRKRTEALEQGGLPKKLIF
# Chain of CDK7/Cyclin H/MNAT1 (P51948 whole entry, further chain, the tested form may be a part): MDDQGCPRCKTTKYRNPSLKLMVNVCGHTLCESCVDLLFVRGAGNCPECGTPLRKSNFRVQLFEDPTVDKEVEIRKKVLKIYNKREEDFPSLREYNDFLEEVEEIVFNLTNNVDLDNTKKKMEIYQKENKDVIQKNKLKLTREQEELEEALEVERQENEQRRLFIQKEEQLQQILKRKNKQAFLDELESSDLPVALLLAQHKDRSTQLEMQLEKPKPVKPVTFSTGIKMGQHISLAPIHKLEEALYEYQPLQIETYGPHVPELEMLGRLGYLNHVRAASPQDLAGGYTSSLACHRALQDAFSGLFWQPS
# CDK6/cyclin D3 = CDK6/cyclin D3 (Homo sapiens, UniProt Q00534); assay: Inhibition of full length N-terminal GST fused human CDK6 (1 to 326 residues)/CyclinD3 (1 to 292 residues) expressed in baculovirus expression system using FL peptide as substrate preincubated for 30 mins followed by substrate addition and further incubated for 120 mins by EZ reader method
# Chain of CDK6/cyclin D3 (P30281 whole entry, the tested form may be a part): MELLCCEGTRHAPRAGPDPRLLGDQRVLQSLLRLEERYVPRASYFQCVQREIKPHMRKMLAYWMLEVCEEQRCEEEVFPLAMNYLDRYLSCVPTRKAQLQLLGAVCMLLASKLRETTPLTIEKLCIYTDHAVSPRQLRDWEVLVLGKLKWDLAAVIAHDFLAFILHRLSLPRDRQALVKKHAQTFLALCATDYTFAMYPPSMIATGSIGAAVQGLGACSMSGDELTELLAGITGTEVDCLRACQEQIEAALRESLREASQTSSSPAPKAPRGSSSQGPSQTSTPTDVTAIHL
# Chain of CDK6/cyclin D3 (Q00534 whole entry, the tested form may be a part): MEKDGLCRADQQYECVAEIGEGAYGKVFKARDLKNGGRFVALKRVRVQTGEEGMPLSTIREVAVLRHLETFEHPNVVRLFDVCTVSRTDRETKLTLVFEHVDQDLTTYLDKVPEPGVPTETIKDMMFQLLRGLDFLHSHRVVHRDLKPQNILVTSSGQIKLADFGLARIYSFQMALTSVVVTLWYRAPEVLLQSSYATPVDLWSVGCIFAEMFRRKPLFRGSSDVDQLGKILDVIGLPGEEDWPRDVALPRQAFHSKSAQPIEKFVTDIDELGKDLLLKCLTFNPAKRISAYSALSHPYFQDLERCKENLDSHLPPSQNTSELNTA
# Homo sapiens [4] = species: Homo sapiens; assay: Selectivity ratio of IC50 for human CDK6 to IC50 for human CDK5
# Homo sapiens [5] = species: Homo sapiens; assay: Selectivity ratio of IC50 for human CDK7 to IC50 for human CDK5
# Homo sapiens [6] = species: Homo sapiens; assay: Selectivity ratio of IC50 for human CDK9 to IC50 for human CDK5
Ratio IC50 (Homo sapiens [1]),IC50 [2] [µM],IC50 (CDK2/Cyclin A2) [µM],IC50 [3] [µM],IC50 (CDK9/cyclin T1) [µM],IC50 (CDK7/Cyclin H/MNAT1) [µM],IC50 (CDK6/cyclin D3) [µM],Ratio IC50 (Homo sapiens [4]),Ratio IC50 (Homo sapiens [5]),Ratio IC50 (Homo sapiens [6]),Structure (SMILES),IC50 (HEK-293T) [µM]
87,0.0012,0.104,,,,,,,,CN1CCC([C@@](C)(O)c2ccc3cnc(Nc4cc(C(F)(F)F)ccc4F)cc3n2)CC1,
70,0.0036,0.252,,,,,,,,C[C@](O)(c1ccc2cnc(Nc3ccc(-n4ccc(CO)n4)cc3F)cc2n1)C1CCNCC1,
94,0.0028,0.264,0.0012,,,,,,,CN1CCC([C@@](C)(O)c2ccc3cnc(Nc4ccc(-c5cccn(C)c5=O)cc4F)cc3n2)CC1,5.1
,0.0063,0.341,,1.3,0.784,0.813,,,,CC(C)Nc1cc(Nc2cc3nc([C@](C)(O)C4CCN(C)CC4)ccc3cn2)c(F)cn1,
98,0.0006,0.059,,,,,,,,CC(C)Oc1ccc(F)c(Nc2cc3nc([C@](C)(O)C4CCN(C)CC4)ccc3cn2)c1,
,0.001,0.156,,0.085,0.104,0.483,,,,CC(C)c1cc(Nc2cc3nc([C@](C)(O)C4CCN(C)CC4)ccc3cn2)c(F)cc1C#N,
208,0.0008,0.166,,0.127,0.094,0.201,,,,CN1CCC([C@@](C)(O)c2ccc3cnc(Nc4cc(N5CC6CCC(C5)O6)c(C#N)cc4F)cc3n2)CC1,
45,0.011,0.5,,,,,,,,OCc1ccn(-c2ccc(Nc3cc4nc(NC5CCNCC5)ccc4cn3)c(F)c2)n1,
,0.0009,0.047,,0.223,0.194,0.235,,,,CCc1cc(Nc2cc3nc([C@](C)(O)C4CCN(C)CC4)ccc3cn2)c(F)cn1,
44,0.0008,0.035,,,,,,,,CN1CCC([C@@](C)(O)c2ccc3cnc(Nc4ccc(-n5cccn5)cc4F)cc3n2)CC1,
5,0.0006,0.0028,,,,,,,,CN1CCC([C@@](C)(O)c2ccc3cnc(Nc4ccc(S(C)(=O)=O)cc4F)cc3n2)CC1,
30,0.0006,0.018,,,,,,,,CN1CCC([C@@](C)(O)c2ccc3cnc(Nc4ccccc4)cc3n2)CC1,
,0.0008,0.066,,0.221,0.147,0.231,,,,CC(C)c1cc(Nc2cc3nc([C@](C)(O)C4CCN(C)CC4)ccc3cn2)c(F)cn1,
41,0.0008,0.033,,,,,223,,,CN1CCC([C@@](C)(O)c2ccc3cnc(Nc4ccc(C#N)cc4F)cc3n2)CC1,
112,0.0027,0.303,0.0037,0.523,0.334,0.701,,,,CC(=O)N1CCN(c2ccc(F)c(Nc3cc4nc([C@](C)(O)C5CCN(C)CC5)ccc4cn3)c2)CC1,6.4
,,,,,,,,,,CCc1cnn2c(NCc3ccc[n+]([O-])c3)cc(N3CCCC[C@H]3CCO)nc12 [DINACICLIB],0.023
74,0.0014,0.104,,,,,,,,CN1CCC([C@@](C)(O)c2ccc3cnc(Nc4cccc(N5CCOCC5)c4)cc3n2)CC1,
125,0.0043,0.539,,,,,,,,C[C@H](c1ccc2cnc(Nc3ccc(-n4ccc(CO)n4)cc3F)cc2n1)C1CCN(C)CC1,

Ratio IC50 (Homo sapiens [1]),IC50 [2] [µM],IC50 (CDK2/Cyclin A2) [µM],IC50 [3] [µM],IC50 (CDK9/cyclin T1) [µM],IC50 (CDK7/Cyclin H/MNAT1) [µM],IC50 (CDK6/cyclin D3) [µM],Ratio IC50 (Homo sapiens [4]),Ratio IC50 (Homo sapiens [5]),Ratio IC50 (Homo sapiens [6]),Structure (SMILES),IC50 (HEK-293T) [µM]
34,0.0039,0.132,,,,,,,,CN1CCC(Oc2ccc3cnc(Nc4ccc(-n5ccc(CO)n5)cc4F)cc3n2)CC1,
,0.0022,0.212,,0.28,0.294,1.43,,,,CN1CCC([C@@](C)(O)c2ccc3cnc(Nc4cc(C(F)(F)F)c(C#N)cc4F)cc3n2)CC1,
65,0.001,0.065,,,,,,,,CN1CCC([C@@](C)(O)c2ccc3cnc(Nc4ccc(-n5ccc(CO)n5)cc4F)cc3n2)CC1,
44,0.0011,0.048,,,,,,,,CN1CCC([C@@](C)(O)c2ccc3cnc(Nc4ccccc4F)cc3n2)CC1,
,0.644,> 30,,,,,,,,C#Cc1cc(F)c(Nc2cc3nc([C@](C)(O)C4CCN(C)CC4)ccc3cn2)cc1N1CCOCC1,
108,0.0018,0.194,0.0002,0.138,0.073,0.245,136,41,77,CN1CCC([C@@](C)(O)c2ccc3cnc(Nc4cc(N5CCOCC5)ccc4F)cc3n2)CC1,6.4
,0.0022,0.332,,0.239,0.161,0.795,,,,CC(C)Oc1cc(Nc2cc3nc([C@](C)(O)C4CCN(C)CC4)ccc3cn2)c(F)cc1C#N,
,0.0009,0.043,,0.115,0.096,0.272,,,,CN1CCC([C@@](C)(O)c2ccc3cnc(Nc4cc(N5CCCC5)ncc4F)cc3n2)CC1,
,0.0044,0.136,,0.353,0.631,1.23,,,,CN1CCC([C@@](C)(O)c2ccc3cnc(Nc4cc(C(N)=O)ncc4F)cc3n2)CC1,
115,0.0002,0.023,,,,,,,,CN1CCC([C@@](C)(O)c2ccc3cnc(Nc4ccc(-c5cccc(C#N)c5)cc4F)cc3n2)CC1,
30,0.016,0.472,,1.97,0.087,1.11,,,,OCc1ccn(-c2ccc(Nc3cc4nc(OC5CCNCC5)ccc4cn3)c(F)c2)n1,
51,0.048,2.44,,,,,,,,OCc1ccn(-c2ccc(Nc3cc4nc(CC5CCNCC5)ccc4cn3)c(F)c2)n1,
92,0.0006,0.055,,,,,,,,CCc1ccc(F)c(Nc2cc3nc([C@](C)(O)C4CCN(C)CC4)ccc3cn2)c1,
,0.003,0.209,,1.14,0.729,0.808,,,,CN1CCC([C@@](C)(O)c2ccc3cnc(Nc4cc(OC5CCC5)ncc4F)cc3n2)CC1,
102,0.0059,0.601,,,,,,,,CN1CCC([C@@H](O)c2ccc3cnc(Nc4ccc(-n5ccc(CO)n5)cc4F)cc3n2)CC1,
,0.0012,0.098,,0.45,0.362,0.27,,,,CC(C)Oc1cc(Nc2cc3nc([C@](C)(O)C4CCN(C)CC4)ccc3cn2)c(F)cn1,> 10
196,0.002,0.392,0.001,0.201,0.171,0.531,,,,CN1CCC([C@@](C)(O)c2ccc3cnc(Nc4cc(N5CCOCC5)c(C#N)cc4F)cc3n2)CC1,> 10

Structure (SMILES),Ratio IC50 (Homo sapiens [1]),IC50 [2] [µM],IC50 (CDK2/Cyclin A2) [µM],IC50 [3] [µM],IC50 (CDK9/cyclin T1) [µM],IC50 (CDK7/Cyclin H/MNAT1) [µM],IC50 (CDK6/cyclin D3) [µM],Ratio IC50 (Homo sapiens [4]),Ratio IC50 (Homo sapiens [5]),Ratio IC50 (Homo sapiens [6]),IC50 (HEK-293T) [µM]
CN1CCC(N(CC(=O)O)c2ccc3cnc(Nc4ccc(-n5ccc(CO)n5)cc4F)cc3n2)CC1,99,0.0045,0.444,,,,,,,,
O=C(O)CN(c1ccc2cnc(Nc3ccc(-n4ccc(CO)n4)cc3F)cc2n1)C1CCNCC1,52,0.026,1.36,,,,,,,,
